The species named for one test is Rattus norvegicus. Particulars: Compound concentration 10.0 uM.
In test [1] the target is T1, 5-hydroxytryptamine receptor 2A (Homo sapiens, UniProt P28223). The following applies: Compound concentration 10.0 uM.
Test [2] concerns the target T2, Muscarinic acetylcholine receptor M2 (Homo sapiens) (UniProt P08172).
T2 sequence (whole entry): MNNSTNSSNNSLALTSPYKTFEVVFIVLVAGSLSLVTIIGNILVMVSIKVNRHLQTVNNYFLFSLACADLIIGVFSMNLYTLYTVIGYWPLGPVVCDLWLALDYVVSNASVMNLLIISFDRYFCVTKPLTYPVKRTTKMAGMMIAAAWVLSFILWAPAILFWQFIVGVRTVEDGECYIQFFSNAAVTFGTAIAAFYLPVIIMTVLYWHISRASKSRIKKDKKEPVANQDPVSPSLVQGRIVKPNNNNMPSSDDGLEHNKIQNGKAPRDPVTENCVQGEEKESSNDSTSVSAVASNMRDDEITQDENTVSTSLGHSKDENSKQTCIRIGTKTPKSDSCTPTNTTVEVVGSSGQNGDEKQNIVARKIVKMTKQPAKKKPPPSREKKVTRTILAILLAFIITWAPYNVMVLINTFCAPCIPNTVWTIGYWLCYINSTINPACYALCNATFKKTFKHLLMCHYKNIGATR
Particulars: Compound concentration 10.0 uM.

The target in test [3] is T3, 5-hydroxytryptamine receptor 1A (Homo sapiens) (UniProt P08908).
T3 sequence (whole entry): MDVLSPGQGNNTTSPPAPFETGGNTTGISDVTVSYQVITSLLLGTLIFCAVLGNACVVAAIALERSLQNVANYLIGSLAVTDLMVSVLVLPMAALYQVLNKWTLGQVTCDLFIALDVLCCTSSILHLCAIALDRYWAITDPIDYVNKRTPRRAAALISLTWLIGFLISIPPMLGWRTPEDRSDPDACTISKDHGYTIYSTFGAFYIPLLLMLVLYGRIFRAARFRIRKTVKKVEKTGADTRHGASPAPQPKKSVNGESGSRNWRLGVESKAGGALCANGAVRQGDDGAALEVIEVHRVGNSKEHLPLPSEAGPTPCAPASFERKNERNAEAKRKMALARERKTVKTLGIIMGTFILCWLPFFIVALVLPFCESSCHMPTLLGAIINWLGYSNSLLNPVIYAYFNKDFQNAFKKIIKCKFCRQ
Particulars: Compound concentration 10.0 uM.

The target of test [4] is D(3) dopamine receptor (Homo sapiens) (UniProt P35462). The following applies: Compound concentration 10.0 uM.
Chain of D(3) dopamine receptor (Homo sapiens) (P35462 whole entry): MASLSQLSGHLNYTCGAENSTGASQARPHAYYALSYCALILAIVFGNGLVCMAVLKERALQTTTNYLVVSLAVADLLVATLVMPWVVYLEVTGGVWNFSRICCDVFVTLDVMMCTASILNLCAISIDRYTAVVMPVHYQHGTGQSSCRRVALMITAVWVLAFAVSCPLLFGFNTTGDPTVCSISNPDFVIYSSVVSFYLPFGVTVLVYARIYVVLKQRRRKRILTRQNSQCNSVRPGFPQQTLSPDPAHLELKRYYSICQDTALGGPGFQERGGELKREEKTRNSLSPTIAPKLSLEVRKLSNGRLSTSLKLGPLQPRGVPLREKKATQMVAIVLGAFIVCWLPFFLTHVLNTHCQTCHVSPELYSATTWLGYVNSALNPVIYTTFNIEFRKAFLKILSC
Test [5] concerns the target Beta-2 adrenergic receptor (Homo sapiens) (UniProt P07550). The following applies: Compound concentration 10.0 uM.
For test [6], the target named is Kappa-type opioid receptor (Homo sapiens) (UniProt P41145). The following applies: Compound concentration 10.0 uM.
Chain of Kappa-type opioid receptor (Homo sapiens) (P41145 whole entry): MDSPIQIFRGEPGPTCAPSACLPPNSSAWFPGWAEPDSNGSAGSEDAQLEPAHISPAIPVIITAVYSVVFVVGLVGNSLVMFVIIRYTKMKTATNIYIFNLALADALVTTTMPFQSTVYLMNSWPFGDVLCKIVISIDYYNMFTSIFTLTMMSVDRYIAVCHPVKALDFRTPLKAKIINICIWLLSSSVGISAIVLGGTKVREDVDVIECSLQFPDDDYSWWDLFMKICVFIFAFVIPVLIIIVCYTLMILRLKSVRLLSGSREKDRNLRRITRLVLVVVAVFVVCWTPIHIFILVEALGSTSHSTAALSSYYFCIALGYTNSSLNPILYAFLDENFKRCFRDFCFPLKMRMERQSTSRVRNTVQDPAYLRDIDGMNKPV
For test [7], the target named is Muscarinic acetylcholine receptor M5 (Homo sapiens) (UniProt P08912). Particulars: Compound concentration 10.0 uM.
Chain of Muscarinic acetylcholine receptor M5 (Homo sapiens) (P08912 whole entry): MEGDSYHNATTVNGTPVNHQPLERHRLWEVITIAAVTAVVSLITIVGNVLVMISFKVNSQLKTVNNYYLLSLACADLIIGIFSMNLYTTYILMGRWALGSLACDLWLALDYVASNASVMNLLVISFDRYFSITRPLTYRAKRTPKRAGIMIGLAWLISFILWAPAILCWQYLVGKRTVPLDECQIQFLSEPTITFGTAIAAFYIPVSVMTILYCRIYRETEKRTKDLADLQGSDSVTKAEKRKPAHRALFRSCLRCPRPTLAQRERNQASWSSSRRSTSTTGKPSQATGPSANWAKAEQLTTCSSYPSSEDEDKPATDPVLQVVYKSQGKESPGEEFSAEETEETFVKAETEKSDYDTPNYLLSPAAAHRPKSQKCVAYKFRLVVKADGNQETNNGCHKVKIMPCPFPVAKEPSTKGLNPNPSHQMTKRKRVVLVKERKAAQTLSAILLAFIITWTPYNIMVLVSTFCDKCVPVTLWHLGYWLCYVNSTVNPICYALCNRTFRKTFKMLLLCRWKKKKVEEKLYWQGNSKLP
In test [8] the target is T4, Muscarinic acetylcholine receptor M1 (Homo sapiens) (UniProt P11229).
T4 sequence (whole entry): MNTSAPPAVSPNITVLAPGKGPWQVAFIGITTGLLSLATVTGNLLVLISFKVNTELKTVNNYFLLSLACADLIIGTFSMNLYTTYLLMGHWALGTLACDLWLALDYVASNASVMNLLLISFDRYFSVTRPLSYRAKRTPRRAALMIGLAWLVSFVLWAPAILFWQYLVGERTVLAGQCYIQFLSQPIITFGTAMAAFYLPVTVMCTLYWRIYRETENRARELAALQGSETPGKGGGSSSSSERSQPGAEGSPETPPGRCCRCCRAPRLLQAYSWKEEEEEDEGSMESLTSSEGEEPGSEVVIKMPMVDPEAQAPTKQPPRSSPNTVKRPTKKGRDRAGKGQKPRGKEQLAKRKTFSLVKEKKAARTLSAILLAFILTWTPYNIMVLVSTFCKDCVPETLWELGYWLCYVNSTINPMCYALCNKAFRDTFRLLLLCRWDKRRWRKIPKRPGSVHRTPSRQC
The following applies: Compound concentration 10.0 uM.

The target of test [9] is Sodium-dependent dopamine transporter (Homo sapiens, UniProt Q01959). In words: Inhibition of Transporter, Dopamine (DAT) at compound concentration of 10.0 uM in the Eurofins-Panlabs radioligand binding assay (Eurofins_assay_220320). Further details: ligand concentration 0.15 nM, non-specific ligand with concentration 10 uM Nomifensine, incubation time 3 h, incubation temperature 4 C.
Chain of Sodium-dependent dopamine transporter (Q01959 whole entry): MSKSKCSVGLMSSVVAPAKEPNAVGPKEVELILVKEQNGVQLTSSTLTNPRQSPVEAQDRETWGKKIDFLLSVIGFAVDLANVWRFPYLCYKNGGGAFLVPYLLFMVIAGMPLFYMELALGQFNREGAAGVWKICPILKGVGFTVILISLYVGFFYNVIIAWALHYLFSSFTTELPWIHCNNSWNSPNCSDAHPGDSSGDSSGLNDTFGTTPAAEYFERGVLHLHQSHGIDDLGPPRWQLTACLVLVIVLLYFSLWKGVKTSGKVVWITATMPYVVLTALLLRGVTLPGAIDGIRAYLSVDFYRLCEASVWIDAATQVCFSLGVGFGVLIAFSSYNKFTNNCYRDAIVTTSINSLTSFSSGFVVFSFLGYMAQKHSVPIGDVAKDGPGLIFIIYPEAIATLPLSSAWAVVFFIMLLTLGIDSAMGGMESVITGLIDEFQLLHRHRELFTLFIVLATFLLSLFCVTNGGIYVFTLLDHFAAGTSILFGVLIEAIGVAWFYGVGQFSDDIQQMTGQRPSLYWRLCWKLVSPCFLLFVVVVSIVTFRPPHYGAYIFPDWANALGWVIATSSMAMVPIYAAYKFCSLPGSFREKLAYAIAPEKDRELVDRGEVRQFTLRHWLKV

Test [10] deals with 5-hydroxytryptamine receptor 3A (Homo sapiens) (UniProt P46098). The following applies: Compound concentration 10.0 uM.
Chain of 5-hydroxytryptamine receptor 3A (Homo sapiens) (P46098 whole entry): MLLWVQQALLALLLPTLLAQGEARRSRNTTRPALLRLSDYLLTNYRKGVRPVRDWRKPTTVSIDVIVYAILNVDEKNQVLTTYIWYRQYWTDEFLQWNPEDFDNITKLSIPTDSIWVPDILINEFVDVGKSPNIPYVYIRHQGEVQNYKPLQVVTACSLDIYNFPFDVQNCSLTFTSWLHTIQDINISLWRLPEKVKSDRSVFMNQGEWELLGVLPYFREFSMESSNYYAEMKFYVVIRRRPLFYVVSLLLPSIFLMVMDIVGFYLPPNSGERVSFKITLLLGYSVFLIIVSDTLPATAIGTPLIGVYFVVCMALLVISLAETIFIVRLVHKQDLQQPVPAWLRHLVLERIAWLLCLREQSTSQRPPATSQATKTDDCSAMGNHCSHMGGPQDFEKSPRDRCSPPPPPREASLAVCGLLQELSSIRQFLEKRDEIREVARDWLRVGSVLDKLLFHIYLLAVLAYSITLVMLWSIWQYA
In test [11] the target is T5, 5-hydroxytryptamine receptor 2C (Homo sapiens) (UniProt P28335).
T5 sequence (whole entry): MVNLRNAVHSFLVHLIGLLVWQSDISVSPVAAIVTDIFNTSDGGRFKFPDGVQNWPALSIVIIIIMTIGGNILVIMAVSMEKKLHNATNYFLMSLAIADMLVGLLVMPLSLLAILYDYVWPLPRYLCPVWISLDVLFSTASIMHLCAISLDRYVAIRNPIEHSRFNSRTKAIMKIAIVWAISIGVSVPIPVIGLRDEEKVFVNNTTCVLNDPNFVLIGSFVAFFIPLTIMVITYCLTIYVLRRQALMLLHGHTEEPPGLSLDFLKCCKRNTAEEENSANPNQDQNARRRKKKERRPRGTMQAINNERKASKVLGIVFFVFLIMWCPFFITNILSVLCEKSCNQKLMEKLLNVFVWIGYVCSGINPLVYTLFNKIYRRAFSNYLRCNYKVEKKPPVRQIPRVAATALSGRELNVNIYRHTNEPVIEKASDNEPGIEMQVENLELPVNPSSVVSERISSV
Particulars: Compound concentration 10.0 uM.

Test [12] has as its target T1, 5-hydroxytryptamine receptor 2A. The following applies: Compound concentration 10.0 uM. The source holds these as a separate data set.
Test [13] addresses T6, Alpha-1A adrenergic receptor (Homo sapiens) (UniProt P35348).
T6 sequence (whole entry): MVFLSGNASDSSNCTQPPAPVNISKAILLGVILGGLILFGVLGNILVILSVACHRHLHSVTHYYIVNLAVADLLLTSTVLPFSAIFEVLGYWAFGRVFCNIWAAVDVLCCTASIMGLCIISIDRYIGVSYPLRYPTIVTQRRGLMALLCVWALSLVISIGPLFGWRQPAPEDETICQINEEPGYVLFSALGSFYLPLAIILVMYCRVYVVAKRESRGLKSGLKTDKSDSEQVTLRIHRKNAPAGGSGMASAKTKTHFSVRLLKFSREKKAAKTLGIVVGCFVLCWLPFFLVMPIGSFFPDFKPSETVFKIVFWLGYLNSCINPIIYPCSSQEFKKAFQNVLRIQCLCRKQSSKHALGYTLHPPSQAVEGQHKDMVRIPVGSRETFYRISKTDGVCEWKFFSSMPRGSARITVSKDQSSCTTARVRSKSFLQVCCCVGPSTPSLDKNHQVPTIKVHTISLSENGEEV
The following applies: Compound concentration 10.0 uM.

The target of test [14] is 5-hydroxytryptamine receptor 6 (Homo sapiens) (UniProt P50406). Particulars: Compound concentration 10.0 uM.
Chain of 5-hydroxytryptamine receptor 6 (Homo sapiens) (P50406 whole entry): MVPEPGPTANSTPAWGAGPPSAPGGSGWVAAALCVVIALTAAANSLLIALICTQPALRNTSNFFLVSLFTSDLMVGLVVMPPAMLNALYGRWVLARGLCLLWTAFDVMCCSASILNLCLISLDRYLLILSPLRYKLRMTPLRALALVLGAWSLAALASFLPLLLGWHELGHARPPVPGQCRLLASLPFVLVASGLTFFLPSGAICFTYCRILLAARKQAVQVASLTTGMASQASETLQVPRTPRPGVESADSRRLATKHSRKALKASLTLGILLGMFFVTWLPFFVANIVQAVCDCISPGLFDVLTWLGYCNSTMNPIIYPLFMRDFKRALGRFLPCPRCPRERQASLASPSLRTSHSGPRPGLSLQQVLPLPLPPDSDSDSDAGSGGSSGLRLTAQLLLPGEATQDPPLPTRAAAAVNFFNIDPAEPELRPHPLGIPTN

One may read the inhibition as the relative decrease from the control value, in per cent. A word on the IC50: it is the concentration that inhibits the measured activity by half. Low values mean inhibition by little substance, high ones a need for much substance. For orientation: Ki means a measure of affinity in units of concentration, obtained from inhibition or displacement. Read a high Ki as lower affinity.

T1 sequence (P28223 whole entry): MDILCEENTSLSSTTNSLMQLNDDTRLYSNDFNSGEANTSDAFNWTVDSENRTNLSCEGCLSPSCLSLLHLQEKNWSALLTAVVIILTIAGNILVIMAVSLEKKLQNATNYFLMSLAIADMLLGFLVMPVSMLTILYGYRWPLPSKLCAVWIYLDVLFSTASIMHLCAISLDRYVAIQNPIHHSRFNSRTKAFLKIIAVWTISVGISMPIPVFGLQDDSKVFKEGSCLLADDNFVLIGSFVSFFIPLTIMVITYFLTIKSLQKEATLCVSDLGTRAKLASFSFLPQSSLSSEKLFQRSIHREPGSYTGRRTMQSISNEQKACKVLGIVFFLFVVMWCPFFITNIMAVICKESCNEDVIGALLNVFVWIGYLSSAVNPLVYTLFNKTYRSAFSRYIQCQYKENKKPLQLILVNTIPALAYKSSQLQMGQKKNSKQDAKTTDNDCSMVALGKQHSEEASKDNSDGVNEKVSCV
Chain of Beta-2 adrenergic receptor (Homo sapiens) (P07550 whole entry, looked up): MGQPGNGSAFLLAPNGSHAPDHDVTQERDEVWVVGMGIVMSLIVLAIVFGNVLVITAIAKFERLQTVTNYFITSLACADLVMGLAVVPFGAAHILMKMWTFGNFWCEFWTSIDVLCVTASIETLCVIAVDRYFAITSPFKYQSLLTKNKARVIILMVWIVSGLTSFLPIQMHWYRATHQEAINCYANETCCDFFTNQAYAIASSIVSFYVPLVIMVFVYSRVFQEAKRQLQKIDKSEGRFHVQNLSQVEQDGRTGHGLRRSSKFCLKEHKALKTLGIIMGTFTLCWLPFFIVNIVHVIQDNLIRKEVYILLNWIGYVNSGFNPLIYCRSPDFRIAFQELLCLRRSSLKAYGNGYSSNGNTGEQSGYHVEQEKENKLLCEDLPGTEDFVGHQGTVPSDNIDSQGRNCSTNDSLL

In the case of `O[C@]1(C(F)(F)F)CCCC[C@H]1Nc1ccc(F)cc1` [BAY-390], the inhibition is -5% in the test filed under Rattus norvegicus; 69.4% in test [1]; -2.71% in test [2]; 10% in test [3]; -6.61% in test [4]; 7.94% in test [5]. Further, the inhibition is 9.94% in test [6]; 10.4% in test [7]; 8.3% in test [8]; 39% in test [10]; 23.4% in test [11]; -2% in test [12]. The inhibition in test [13] is -8.22%. The compound also came in with an IC50 in [9] of 1200 nM. This compound gave a Ki in test [9] of 940 nM.
`COc1cc(N[C@@H]2CCCC[C@]2(O)C(F)(F)F)ccc1F` [BAY-9897]: the inhibition was 1% in test [1]; 3.81% in test [2]; -0.75% in test [4]; 22.2% in test [5]; 10.5% in test [6]; -5.5% in test [7]. Further, the inhibition in [8] was 18.5%; in test [10], 11.6%; in test [14], -4.02%; in [11], -0.76%; in test [13], 2.69%.

The values are drawn from ChEMBL document CHEMBL4507328, “Data for DCP probe BAY-390” (2021).
